{"source": "patent US4320148A", "about": "“2-Aminotetralin compounds, pharmaceutical compositions and method of producing central alpha1 agonist activity” (SmithKline Corporation, priority 1980, dated 1982)", "data": [{"tested_on": "postjunctional alpha1 receptor (isolated rabbit ear artery segment)", "test": "postjunctional alpha1 agonist activity (EC50), isolated segment of rabbit ear artery", "format": "cell-based", "conditions": "isolated rabbit ear artery segment superfused with oxygenated Krebs solution; maximum response of the artery determined with norepinephrine; read-out: EC50 (dose required to produce 50% of the maximum response)", "procedure": "A quantitation of postjunctional alpha1 agonist activity (EC50) is determined for compounds showing activity in the above test. This is accomplished by employing an isolated segment of rabbit ear artery. The segment is mounted in a chamber superfused with oxygenated Krebs solution. The segment is suspended between two tungsten wires, one attached to the chamber, the other to a force-displacement transducer so that smooth muscle tension can be measured directly. Before administration of the test drug, norepinephrine is administered in increasing concentration (10^-8 M to 3×10^-6 M) to determine maximum response of the artery. The dose required to produce 50% of the maximum response is the EC50.", "units": {"EC50": "nM"}, "values": [{"smiles": "COc1ccc(SC)c2c1CC(N(C)C)CC2", "note": "(stereo not shown) [SK&F 89,900, 1,2,3,4-tetrahydro-8-methoxy-N,N-dimethyl-5-(methylthio)-2-naphthalenamine]", "EC50": 13}, {"smiles": "COc1ccc(SC)c2c1CC(N)CC2", "note": "(stereo not shown) [SK&F 89,748, 1,2,3,4-tetrahydro-8-methoxy-5-(methylthio)-2-naphthalenamine]", "EC50": 9.3}, {"smiles": "COc1ccc(OC)c2c1CCC(N)C2", "note": "(stereo not shown) [SK&F 87,696]", "EC50": 110}, {"smiles": "COc1ccc(OC)c2c1CCC(N(C)C)C2", "note": "(stereo not shown) [SK&F 88,444]", "EC50": 100}]}]}
